Measured values as given in BigSolDB 2.1.

Question: With `CCCCOC(=O)c1ccc(O)cc1` as the molecule, how does the solubility (mole fraction) (in acetonitrile, 281.05 K) read?
Answer: 0.275

Question: And the solubility (mole fraction) (in acetonitrile, 291.05 K)?
Answer: 0.449

Question: And the solubility (mole fraction) (in acetonitrile, 301.05 K)?
Answer: 0.61

Question: And the solubility (mole fraction) (in acetonitrile, 311.05 K)?
Answer: 0.753

Question: What about the solubility (mole fraction) (in acetonitrile, 321.05 K) of the same molecule?
Answer: 0.857

Question: What about the solubility (mole fraction) (in ethyl acetate, 281.05 K) of the same molecule?
Answer: 0.424

Question: And the solubility (mole fraction) (in ethyl acetate, 291.05 K)?
Answer: 0.501

Question: And the solubility (mole fraction) (in ethyl acetate, 301.05 K)?
Answer: 0.591

Question: What about the solubility (mole fraction) (in ethyl acetate, 311.05 K) of the same molecule?
Answer: 0.688

Question: And the solubility (mole fraction) (in ethyl acetate, 321.05 K)?
Answer: 0.781
